Measurements taken from patent US20260347361A1, “LRRK2 INHIBITORS AND USES THEREOF” (NEURON23, INC, priority 2022, published 2026).

Target: T1, wt human LRRK2 (Homo sapiens, UniProt Q5S007)
T1 construct: wt human LRRK2, catalytic site, catalytic site (ThermoFisher/USA); purchased ThermoFisher
Assay: TR-FRET LanthaScreen Tb Kinase Activity Assay, inhibition of LRRK2 kinase
Type: biochemical
Details: 2 nM wt human LRRK2, 400 nM fluorescein-ERM (LRRKtide) peptide, 38 µM ATP, 15 min pre-incubation, 120 min at room temperature
Method: In Table 2, activity is provided as the following: “+++”=IC50 less than 50 nM; “++”=IC50 between 50 nM and 200 nM; “+”=IC50> or =200 nM.
The compounds listed in Table 2 were tested for their inhibitory effect on LRRK2 kinase according to the following procedures.
The protocol for basic TR-FRET LanthaScreen Tb Kinase Activity Assay inhibitor studies were as follows. LanthaScreen Kinase Activity Assays (ThermoFisher/USA) to evaluate inhibitors were performed by addition of 100 nl of test compound in corresponding DMSO dilutions/5 μl of kinase/fluorescein-ERM(LRRKtide) peptide mixture, Compound & kinase were pre-incubated for 15 minutes, then 5 μl of ATP into 384 well small volume plates. After incubation for 120 minutes at room temperature, the detection reagents containing Tb-anti-pLRRKtide antibody were added to monitor phosphorylation level of peptide. Then, after 60 min minutes incubation at room temperature plates were read in Envision. Data analysis of emission ratios was according to LanthaScreen Tb Kinase Activity Assay protocol.
Kinase and assay components were adjusted to final concentrations according to the kit protocol. For LRRK2: 2 nM wt human LRRK2, catalytic site, catalytic site (ThermoFisher/USA), 400 nM peptide, 38 µM ATP in 1× Kinase Buffer A.
Basic protocol for TR-FRET LanthaScreen Tb Kinase Activity Assay inhibitor studies involved two steps:
Enzymatic step: Addition of […] of test compound in corresponding DMSO dilutions, 5 μL of kinase/substrate mixture, 5 μL of ATP into 384 well small volume plates. Incubation for 120 minutes at room temperature.
Detection step: Addition of 10 μL EDTA & antibody, read plate after 60 minutes. Data analysis of emission ratios according to KinEASE assay protocol.
Kinase and assay components were adjusted to final concentrations according to the kit protocol.

T1 sequence (Q5S007 970-2527 limits assumed): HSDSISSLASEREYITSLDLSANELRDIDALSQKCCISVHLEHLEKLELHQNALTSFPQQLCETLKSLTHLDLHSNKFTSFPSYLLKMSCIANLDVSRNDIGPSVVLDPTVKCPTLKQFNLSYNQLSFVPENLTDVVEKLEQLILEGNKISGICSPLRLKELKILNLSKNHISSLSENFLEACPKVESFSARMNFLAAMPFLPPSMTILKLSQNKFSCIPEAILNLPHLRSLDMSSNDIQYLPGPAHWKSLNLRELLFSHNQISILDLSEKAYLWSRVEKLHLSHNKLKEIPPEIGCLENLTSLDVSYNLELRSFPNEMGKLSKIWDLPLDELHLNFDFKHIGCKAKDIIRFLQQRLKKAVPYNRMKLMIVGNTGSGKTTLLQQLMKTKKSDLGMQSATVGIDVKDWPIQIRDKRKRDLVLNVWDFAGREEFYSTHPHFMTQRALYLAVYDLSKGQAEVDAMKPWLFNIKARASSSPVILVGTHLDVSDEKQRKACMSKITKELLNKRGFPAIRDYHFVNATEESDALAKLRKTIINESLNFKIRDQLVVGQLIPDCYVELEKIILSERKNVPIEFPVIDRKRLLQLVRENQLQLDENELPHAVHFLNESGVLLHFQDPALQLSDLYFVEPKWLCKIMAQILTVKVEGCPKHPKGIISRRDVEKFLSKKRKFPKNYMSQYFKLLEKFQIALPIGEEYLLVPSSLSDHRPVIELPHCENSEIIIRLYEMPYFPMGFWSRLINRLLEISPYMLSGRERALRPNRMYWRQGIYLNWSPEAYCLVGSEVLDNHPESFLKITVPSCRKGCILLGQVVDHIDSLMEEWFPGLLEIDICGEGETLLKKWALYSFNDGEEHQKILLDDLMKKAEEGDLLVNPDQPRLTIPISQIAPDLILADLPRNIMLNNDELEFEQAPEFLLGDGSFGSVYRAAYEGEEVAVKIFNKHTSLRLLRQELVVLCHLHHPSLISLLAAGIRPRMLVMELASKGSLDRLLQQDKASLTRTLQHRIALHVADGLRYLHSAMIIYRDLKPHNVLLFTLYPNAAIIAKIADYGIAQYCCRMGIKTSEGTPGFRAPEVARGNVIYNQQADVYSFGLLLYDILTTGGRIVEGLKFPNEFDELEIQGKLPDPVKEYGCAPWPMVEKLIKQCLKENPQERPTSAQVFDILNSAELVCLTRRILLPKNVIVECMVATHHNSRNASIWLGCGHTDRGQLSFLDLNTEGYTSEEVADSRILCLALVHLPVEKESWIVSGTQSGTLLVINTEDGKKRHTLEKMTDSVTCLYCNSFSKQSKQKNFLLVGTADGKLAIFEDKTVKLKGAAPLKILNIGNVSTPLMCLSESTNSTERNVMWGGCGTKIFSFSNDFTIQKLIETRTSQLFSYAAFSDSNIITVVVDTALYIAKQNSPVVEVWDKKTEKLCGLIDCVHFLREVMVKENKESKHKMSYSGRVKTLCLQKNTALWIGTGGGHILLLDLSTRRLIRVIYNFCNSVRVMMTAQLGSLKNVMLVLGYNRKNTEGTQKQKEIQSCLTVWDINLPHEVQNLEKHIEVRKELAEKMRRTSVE

SMILES	IC50 [nM]
Fc1cccc(Cl)c1C1=Nc2c(Cl)cnn2-c2cc(N3CCOCC3)ccc2N1 [4-[3-chloro-5-(2-chloro-6-fluoro-phenyl)-6H-pyrazolo[1,5-a][1,3,5]benzotriazepin-9-yl]morpholine]	< 50
CC(C)(C)NC(=O)c1ccc2c(c1)-n1ncc(Cl)c1N=C(c1c(F)cccc1F)N2 [N-(tert-butyl)-3-chloro-5-(2,6-difluorophenyl)-6H-benzo[f]pyrazolo[1,5-a][1,3,5]triazepine-9-carboxamide]	< 50
Fc1cccc(F)c1C1=Nc2c(Cl)cnn2-c2cc(N3CC4CC(C3)O4)ccc2N1 [3-[3-chloro-5-(2,6-difluorophenyl)-6H-pyrazolo [1,5-a][1,3,5]benzotriazepin-9-yl]-6-oxa-3-azabicyclo [3.1.1]heptane]	< 50
Fc1cccc(F)c1C1=Nc2c(Cl)cnn2-c2cc(N3C4COCC3C4)ccc2N1 [6-[3-chloro-5-(2,6-difluorophenyl)-6H-pyrazolo[1,5-a][1,3,5]benzotriazepin-9-yl]-3-oxa-6-azabicyclo[3.1.1]heptane]	< 50
Fc1cccc(F)c1C1=Nc2ccnn2-c2cc(N3CCOCC3)ncc2N1 [4-(5-(2,6-difluorophenyl)-6H-pyrazolo[1,5-a]pyrido[3,4-f][1,3,5]triazepin-9-yl)morpholine]	< 50
OC1CCN(c2ccc3c(c2)-n2ncc(Cl)c2N=C(c2c(F)cccc2F)N3)C1 (racemic) [1-[3-chloro-5-(2,6-difluorophenyl)-6H-pyrazolo[1,5-a][1,3,5]benzotriazepin-9-yl]pyrrolidin-3-ol]	< 50
O=C(NC1COC1)c1ccc2c(c1)-n1ncc(Cl)c1N=C(c1c(F)cccc1F)N2 [3-chloro-5-(2,6-difluorophenyl)-N-(oxetan-3-yl)-6H-benzo[f]pyrazolo[1,5-a][1,3,5]triazepine-9-carboxamide]	< 50
C[C@H]1CN(c2cc3c(cn2)NC(c2c(F)cccc2F)=Nc2ccnn2-3)C[C@H](C)O1 [(2S,6S)-4-(5-(2,6-difluorophenyl)-6H-pyrazolo[1,5-a]pyrido[3,4-f][1,3,5]triazepin-9-yl)-2,6-dimethylmorpholine]	< 50
C[C@H]1CN(c2cc3c(cn2)NC(c2c(F)cccc2F)=Nc2c(F)cnn2-3)CCO1 [(S)-4-(5-(2,6-difluorophenyl)-3-fluoro-6H-pyrazolo[1,5-a]pyrido[3,4-f][1,3,5]triazepin-9-yl)-2-methylmorpholine]	< 50
Fc1cc(F)c(C2=Nc3c(Cl)cnn3-c3cc(N4CCOCC4)ncc3N2)c(F)c1 [4-(3-chloro-5-(2,4,6-trifluorophenyl)-6H-pyrazolo[1,5-a]pyrido[3,4-f][1,3,5]triazepin-9-yl)morpholine]	< 50
O=C(NC1CCCC1)c1ccc2c(c1)-n1ncc(Cl)c1N=C(c1c(F)cccc1F)N2 [3-chloro-N-cyclopentyl-5-(2,6-difluorophenyl)-6H-pyrazolo[1,5-a][1,3,5]benzotriazepine-9-carboxamide]	< 50
CC(C)S(=O)(=O)NC(=O)c1ccc2c(c1)-n1ncc(Cl)c1N=C(c1c(F)cccc1F)N2	> 200
N#Cc1cnn2c1N=C(c1c(F)cccc1F)Nc1cnc(N3CCOCC3)cc1-2 [5-(2,6-difluorophenyl)-9-morpholino-6H-pyrazolo[1,5-a]pyrido[3,4-f][1,3,5]triazepine-3-carbonitrile]	< 50
Fc1cccc(F)c1C1=Nc2c(Cl)cnn2-c2cc(N3CC4(CC(F)C4)C3)ccc2N1 [3-chloro-5-(2,6-difluorophenyl)-9-(6-fluoro-2-azaspiro[3.3]heptan-2-yl)-6H-pyrazolo[1,5-a][1,3,5]benzotriazepine]	< 50
C[C@H]1CN(c2cc3c(cn2)NC(c2c(F)cccc2F)=Nc2c(Cl)cnn2-3)C[C@H](C)O1 [(2S,6S)-4-[5-chloro-8-(2,6-difluorophenyl)-2,3,7,9,12-pentazatricyclo[8.4.0.02,6]tetradeca-1(10),3,5,7,11,13-hexaen-13-yl]-2,6-dimethyl-morpholine]	< 50
Fc1cccc(F)c1C1=Nc2c(Cl)cnn2-c2cc(N3CC[C@H](F)C3)ccc2N1 [3-chloro-5-(2,6-difluorophenyl)-9-[(3S)-3-fluoropyrrolidin-1-yl]-6H-pyrazolo[1,5-a][1,3,5]benzotriazepine]	< 50
Fc1cccc(F)c1C1=Nc2c(Cl)cnn2-c2cc(N3CCOCC3)ncc2N1 [4-(3-Chloro-5-(2,6-difluorophenyl)-6H-pyrazolo[1,5-a]pyrido[3,4-f][1,3,5]triazepin-9-yl)morpholine]	< 50
CN1CCN(c2ccc3c(c2)-n2ncc(Cl)c2N=C(c2c(F)cccc2F)N3)CC1 [3-chloro-5-(2,6-difluorophenyl)-9-(4-methylpiperazin-1-yl)-6H-pyrazolo[1,5-a][1,3,5]benzotriazepine]	< 50
C[C@H]1CN(c2ccc3c(c2)-n2ncc(Cl)c2N=C(c2c(F)cccc2F)N3)C[C@H](C)O1 [(2S,6S)-4-(3-chloro-5-(2,6-difluorophenyl)-6H-benzo[f]pyrazolo[1,5-a][1,3,5]triazepin-9-yl)-2,6-dimethylmorpholine]	< 50
Fc1cccc(F)c1C1=Nc2c(Cl)cnn2-c2cc(-c3cn[nH]c3)ccc2N1	< 50
Fc1cccc(F)c1C1=Nc2c(Cl)cnn2-c2cc(N3CCNCC3)ccc2N1 [3-chloro-5-(2,6-difluorophenyl)-9-piperazin-1-yl-6H-pyrazolo[1,5-a][1,3,5]benzotriazepine]	< 50
Fc1cccc(F)c1C1=Nc2c(Cl)cnn2-c2cc(N3CCOCC3)ccc2N1 [4-[3-chloro-5-(2,6-difluorophenyl)-6H-pyrazolo[1,5-a][1,3,5]benzotriazepin-9-yl]morpholine]	< 50
O=C(O)c1ccc2c(c1)-n1ncc(Cl)c1N=C(c1c(F)cccc1F)N2 [Methyl 3-chloro-5-(2,6-difluorophenyl)-6H-pyrazolo[1,5-a][1,3,5]benzotriazepine-9-carboxylic acid]	> 200
O=C(NC1CCC1)c1ccc2c(c1)-n1ncc(Cl)c1N=C(c1c(F)cccc1F)N2 [3-chloro-N-cyclobutyl-5-(2,6-difluorophenyl)-6H-pyrazolo[1,5-a][1,3,5]benzotriazepine-9-carboxamide]	< 50
Fc1cccc(F)c1C1=Nc2c(F)cnn2-c2cc(N3CCOCC3)ncc2N1 [4-(5-(2,6-difluorophenyl)-3-fluoro-6H-pyrazolo[1,5-a]pyrido[3,4-f][1,3,5]triazepin-9-yl)morpholine]	< 50
O=C(NCC1CC1)c1ccc2c(c1)-n1ncc(Cl)c1N=C(c1c(F)cccc1F)N2 [3-chloro-N-(cyclopropylmethyl)-5-(2,6-difluorophenyl)-6H-pyrazolo[1,5-a][1,3,5]benzotriazepine-9-carboxamide]	< 50
C[C@@H]1CN(c2ccc3c(c2)-n2ncc(Cl)c2N=C(c2c(F)cccc2F)N3)C[C@H](C)O1 [(2R,6S)-4-(3-chloro-5-(2,6-difluorophenyl)-6H-benzo[f]pyrazolo[1,5-a][1,3,5]triazepin-9-yl)-2,6-dimethylmorpholine]	50 to 200
Fc1cccc(F)c1C1=Nc2c(Cl)cnn2-c2cc(N3CCC(F)(F)C3)ccc2N1 [3-chloro-5-(2,6-difluorophenyl)-9-(3,3-difluoropyrrolidin-1-yl)-6H-pyrazolo[1,5-a][1,3,5]benzotriazepine]	< 50
NC(=O)c1ccc2c(c1)-n1ncc(Cl)c1N=C(c1c(F)cccc1F)N2 [3-chloro-5-(2,6-difluorophenyl)-6H-pyrazolo[1,5-a][1,3,5]benzotriazepine-9-carboxamide]	< 50
